Legend:
[1] = test system: Ba/F3 cells expressing native BCR-ABL
Excerpt: Prior to cell proliferation assays, RNA was isolated from each Ba/F3 cell line, and kinase domain mutations were confirmed by RT-PCR followed by DNA sequence analysis using Mutation Surveyor software (SoftGenetics, State College, Pa.).

[2] = test system: Phospho-Erk1/2 in KatoIII cells; experiment: Western immunoblotting; details: Homo sapiens, KATO III, read-out: Phospho-Erk1/2 IC50 (nM)
Excerpt: (§2) Cells were lysed in either SDS buffer or Phospho-Safe™ buffer (Novagen, Gibbstown, N.J.) and protein lysates were immunoprecipitated overnight and/or immunoblotted with the indicated antibodies. Protein expression was quantified using Quantity One software (BioRad, Hercules, Calif.).

[3] = molecular target: PKC8; experiment: Kinase assay (RBC); details: 10 μM ATP
[4] = test system: Phospho-Erk1/2 in SNU1 cells; experiment: Western immunoblotting; details: Homo sapiens, SNU1, read-out: Phospho-Erk1/2 IC50 (nM)
Excerpt: as §2

[5] = test system: KY01 CML leukemia cells; experiment: Cellular proliferation assay
[6] = test system: AN3CA cells; experiment: Soft agar colony formation assay; format: cell-based; details: Homo sapiens, AN3-CA, read-out: Soft Agar IC50 (nM)
Method: (§1) The soft agar assay was performed using the CytoSelect 96-Well Cell Transformation Assay (Cell Biolabs, San Diego, Calif.). Briefly, cells were resuspended in 0.08% agar and plated on 0.06% agar in 96-well plates. […] Cells were either stained with iodonitrotetrazoliumchloride (Sigma, St. Louis, Mo.) or solubilized and quantified with CyQuant Dye according to the manufacturer's protocol. “ND” indicated not determined.

[7] = test system: Hec1B cells; experiment: Soft agar colony formation assay; format: cell-based; details: Homo sapiens, HEC-1B, read-out: Soft Agar IC50 (nM)
Method: as §1

[8] = test system: SNU16 cells; experiment: Soft agar colony formation assay; format: cell-based; details: Homo sapiens, SNU-16, read-out: Soft Agar IC50 (nM)
Method: as §1

[9] = test system: SNU1 cells; experiment: Soft agar colony formation assay; format: cell-based; details: Homo sapiens, SNU1, read-out: Soft Agar IC50 (nM)
Method: as §1

[10] = molecular target: c-MER (Homo sapiens, UniProt Q12866); experiment: Kinase assay (RBC)
[11] = test system: FGFR3 signaling in MGH-U3 bladder cells (Y375C); experiment: Signaling (Western immunoblotting), Table 12; details: read-out: Signaling IC50 (nM)
Excerpt: Cells were lysed in either SDS buffer or Phospho-Safe (Novagen, Gibbstown, N.J.) and protein lysates were immunoprecipitated overnight and/or immunoblotted with the indicated antibodies. Protein expression was quantified using Quantity One software (BioRad, Hercules, Calif.).

c-MER, sequence (Q12866 587-858 limits assumed): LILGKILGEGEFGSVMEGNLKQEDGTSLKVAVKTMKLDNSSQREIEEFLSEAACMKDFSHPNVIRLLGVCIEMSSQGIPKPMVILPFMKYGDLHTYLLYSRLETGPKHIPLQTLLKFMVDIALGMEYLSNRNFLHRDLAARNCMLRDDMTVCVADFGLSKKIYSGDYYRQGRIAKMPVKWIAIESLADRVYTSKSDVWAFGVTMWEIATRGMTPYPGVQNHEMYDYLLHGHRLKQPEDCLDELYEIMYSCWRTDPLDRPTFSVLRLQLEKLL

`Cc1ccc(C(=O)Nc2ccc(CN3CCN(C)CC3)c(C(F)(F)F)c2)cc1C#Cc1cnc2cccnn12` [Compound 1, 3-(imidazo[1,2-b]pyridazin-3-ylethynyl)-4-methyl-N-(4-((4-methylpiperazin-1-yl)-methyl)-3-(trifluoromethyl)phenyl)benzamide] was tested, and the “differential in sensitivity between cells expressing native BCR-ABL and parental cells” value [1] was “greater than 3000 fold”, the IC50 [2] was 8 nM and the IC50 [3] was greater than 1000 nM. The IC50 [4] was greater than 1000 nM, the IC50 [5] was 0.4 nM and the IC50 [6] was 23 nM. For the same molecule, the IC50 [7] was greater than 1000 nM, the IC50 [8] was 29 nM and the IC50 [9] was greater than 1000 nM. It also gave an IC50 [10] of 406 nM and an IC50 [11] of 40 nM.
